Test results: US20230059124A1, “Novel TAS2R38 Bitter Taste Receptor Agonist” (priority 2021, published 2023)

Experiments:
TAS2R38 gene [1] = test: DNA microarray gene expression, MatTek full thickness tissue (EFT-200); assay type: cell-based, Homo sapiens; conditions: 0.05 ml solubilized xanthohumol liquid formulation 5 mg/ml, 48 hours; ratio >=1.3 = up-regulated
From the text: The testing model used in this study is the MatTek full thickness tissue (EFT-200). This skin model consists of normal human-derived epidermal keratinocytes that have been cultured to form a multilayered, highly differentiated model of the human epidermis and human fibroblasts that have been seeded into a collagen matrix to form the dermis. This model also introduces a well-defined basement membrane between the epidermal and dermal layers, which is essential to enable in vivo like interactions between the keratinocytes and the fibroblasts.
Upon arrival, the MatTek ET-200 tissue was stored at 4° C. until used (they can be stored for up to 72 hours however tissue viability may decrease with prolonged storage). Prior to use, the tissues to be used were removed from the agarose-shipping tray and placed into a 6-well plate containing 2.0 ml of assay medium (37±2° C.). All of the agarose must be removed from the outside of the tissue culture insert since any residual agarose may prevent the assay medium from reaching the tissue. […]
At the end of the incubation any residual test material was removed from the tissues by rinsing them twice with at least 100 μl of PBS. […] These broader ranges are a more conservative judging criterion and account for possible sources of variation in fluorescence intensity that are not associated with the treatment. […]

TAS2R38 gene [2] = test: qPCR TAS2R38 gene expression in hTBEC 1 culture; assay type: cell-based, human; conditions: for Tas2R38 3prime 2^-ddct / Tas2R38 5prime 2^-ddct / Tas2R38C DS 2^-ddct / Tas2R38 3prime ddCT / Tas2R38 5prime ddCT / Tas2R38C DS ddCT: 1 μM; for Tas2R38 3prime 2^-ddct / Tas2R38 5prime 2^-ddct / Tas2R38C DS 2^-ddct: control = 1.000
From the text: (§1) Currently, very little is known about compounds that directly agonize and regulate TAS2R38 expression. Because of this, research related to the prenylflavonoid xanthohumol's effects on gene expression was compared with other TAS2R38 targeting compounds, namely sinigrin, a glucosinolate connected to the family of glucosides found in the Brassicaceae vegetable family and found in foods such as brussels sprouts and broccoli. […] selectively triggers the taster variant of the TAS2R38 receptor (Meyerhof, W. et al. The Molecular Receptive Ranges of Human TAS2R Bitter Taste Receptors. Chem Sense (2010) 35: 157-70.) […] was used as a comparator at a concentration of 1 the same concentration as xanthohumol (1 μM). Two hTBEC cultures were selected for this initial study. hTBEC 1 is derived from one of the most bitter-responsive cultures, which has a moderate/moderately low basal gene expression level of TAS2R38. hTBEC 2 is derived from a culture that responds to bitter stimuli, but has a high response in particular to TAS2R38 expression compared with other hTBEC repositories. RNA was harvested from cultures treated cultures and control cultures at 1 μM lead compound at 24 and 48 hours post treatment. Following is a table that explains the experimental paradigm in full: [table] In an effort to establishing a comprehensive understanding of xanthohumol's effects on gene expression, 3 unique primer pairs to accurately capture the TAS2R38 gene were developed as cultures. […] The published NCBI genetic sequence for the region of chromosome 7q that encodes TAS2R38 and overlay map the SNP variant markers to ensure the primers cover strategic regions of the TAS2R38 gene. For probing TAS2R38, 3 individual primer pairs were used for a comprehensive view of how the compound may be “hitting” the gene.

TAS2R38 gene [3] = test: qPCR TAS2R38 gene expression in hTBEC 2 culture; assay type: cell-based, human; conditions: 1 μM; for Tas2R38 3prime 2^-ddct / Tas2R38 5prime 2^-ddct / Tas2R38C DS 2^-ddct: control = 1.000
From the text: as §1

[4] = hTBEC 1, 24 hour, vs control 24
[5] = hTBEC 1, 48 hour, vs control 48 hour
[6] = hTBEC 2, 24 hour, vs control 24
[7] = hTBEC 2, 48 hour, vs control 48 hour

Row | SMILES | Tas2R38 3prime 2^-ddct (TAS2R38 gene [2]; hTBEC 1, 24 hour) | Tas2R38 5prime 2^-ddct (TAS2R38 gene [2]; hTBEC 1, 24 hour) | Tas2R38C DS 2^-ddct (TAS2R38 gene [2]; hTBEC 1, 24 hour) | Tas2R38 3prime ddCT (TAS2R38 gene [2]; [4]) | Tas2R38 5prime ddCT (TAS2R38 gene [2]; [4]) | Tas2R38C DS ddCT (TAS2R38 gene [2]; [4]) | Tas2R38 3prime 2^-ddct (TAS2R38 gene [2]; hTBEC 1, 48 hour) | Tas2R38 5prime 2^-ddct (TAS2R38 gene [2]; hTBEC 1, 48 hour) | Tas2R38C DS 2^-ddct (TAS2R38 gene [2]; hTBEC 1, 48 hour) | Tas2R38 3prime ddCT (TAS2R38 gene [2]; [5]) | Tas2R38 5prime ddCT (TAS2R38 gene [2]; [5]) | Tas2R38C DS ddCT (TAS2R38 gene [2]; [5]) | Tas2R38 3prime 2^-ddct (TAS2R38 gene [3]; hTBEC 2, 24 hour) | Tas2R38 5prime 2^-ddct (TAS2R38 gene [3]; hTBEC 2, 24 hour) | Tas2R38C DS 2^-ddct (TAS2R38 gene [3]; hTBEC 2, 24 hour) | Tas2R38 3prime ddCT (TAS2R38 gene [3]; [6]) | Tas2R38 5prime ddCT (TAS2R38 gene [3]; [6]) | Tas2R38C DS ddCT (TAS2R38 gene [3]; [6]) | Tas2R38 3prime 2^-ddct (TAS2R38 gene [3]; hTBEC 2, 48 hour) | Tas2R38 5prime 2^-ddct (TAS2R38 gene [3]; hTBEC 2, 48 hour) | also measured
1 | COc1cc(O)c(CC=C(C)C)c(O)c1C(=O)/C=C/c1ccc(O)cc1 [xanthohumol] | 2.024 | 3.983 | 2.785 | −1.017 | −1.994 | −1.478 | 0.664 | 1.368 | 4.109 | 0.591 | −0.452 | −2.039 | 2.013 | 2.609 | 1.779 | −1.009 | −1.383 | −0.831 | 0.995 | 0.624 | Ratio of Medians, TAS2R38 (NM_176817) up-regulation (TAS2R38 gene [1]): 21; up regulation of the TAS2R38 gene, higher than baseline or the Sinigrin control (TAS2R38 gene [2]; FIG. 1, 1 μM, within 24 hours, culture not stated): approximately 4 ×; Tas2R38C DS 2^-ddct (TAS2R38 gene [3]; hTBEC 2, 48 hour): 4.175; Tas2R38 3prime ddCT (TAS2R38 gene [3]; [7]): 0.007; Tas2R38 5prime ddCT (TAS2R38 gene [3]; [7]): 0.679; Tas2R38C DS ddCT (TAS2R38 gene [3]; [7]): −2.062
2 | C=CCC(=NOS(=O)(=O)O)S[C@@H]1O[C@H](CO)[C@@H](O)[C@H](O)[C@H]1O (stereo in doubt) [sinigrin, reference compound] | 0.988 | 1.142 | 1.023 | 0.017 | −0.192 | −0.033 | 0.983 | 1.027 | 1.716 | 0.025 | −0.038 | −0.779 | 0.600 | 0.553 | 0.657 | 0.736 | 0.616 | 0.605 | 1.436 | 1.317 | Tas2R38C DS 2^-ddct (TAS2R38 gene [3]; hTBEC 2, 48 hour): 0.625; Tas2R38 3prime ddCT (TAS2R38 gene [3]; [7]): −0.524; Tas2R38 5prime ddCT (TAS2R38 gene [3]; [7]): −0.397; Tas2R38C DS ddCT (TAS2R38 gene [3]; [7]): 0.677
